# Like-named read-outs stand apart in the source and are kept apart here.
# Experiments:
# [1] = system: MCF 10A non-tumorigenic mammary epithelial cells; assay: MTT assay of MCF10A cells; type: cell-based, human; conditions: for IC50: Homo sapiens; for Selectivity index: IC50 for MCF 10A divided by IC50 for +SA cell line
# Method: MCF 10A (ATCC cat # CRL-10317) normal human non-tumorigenic mammary epithelial cells were maintained in serum-free defined medium consisting of Dulbecco's modified Eagle's medium (DMEM)/F12 containing 5% horse serum, 1% penicillin/streptomycin, 0.5 μg/mL hydrocortisone, 100 ng/mL cholera toxin, 10 μg/mL insulin, and 20 ng/mL epidermal growth factor (rhEGF). For subculturing, cells were rinsed twice with sterile Ca2+ and Mg2+-free phosphate buffered saline (PBS) and incubated in 0.25% trypsin containing 0.025% EDTA in PBS for 5 min at 37° C. The released cells were centrifuged, re-suspended in fresh media and counted using a hemocytometer. For testing, MCF 10A cells were plated at a density of 10×10^4 cells/well. A stock solution of the compounds was prepared in DMSO. DMSO was added to all treatment media such that the final DMSO concentration was the same in all treatment groups within a given experiment and was always less than 0.1%. The compounds were fed in serum free media. MCF10A mammary epithelial cell's viable number was determined by MTT colorimetric assay. […] IC50 values were calculated by non-linear regression using statistical software. The selectivity index indicated in the table represents the IC50 value for the MCF 10A cell line divided by the IC50 value for the +SA cell line.
# [2] = system: MDA-MB-231 human breast cancer cell line; assay: MTT assay of MDA-MB-231 cells; type: cell-based; conditions: Homo sapiens, media containing 5% fetal bovine serum
# Method: (§1) MDA-MB-231 and MCF7 cells were plated at a density of 8×10^3 cells/well and 10^4 cells/well in 96-well culture plates, respectively. The compounds were fed in serum free media containing 5% and 1% fetal bovine serum for MDA-MB-231 and MCF7 cells, respectively.
# [3] = system: MCF7 human breast cancer cell line; assay: MTT assay of MCF7 cells; type: cell-based; conditions: Homo sapiens, media containing 1% fetal bovine serum
# Method: as §1
# [4] = system: MDA-MB-231 human breast cancer cells; assay: Wound-healing assay (cell migration); type: cell-based; conditions: Homo sapiens; for inhibition at 5 µM: MDA-MB-231, 24 h, wound-healing assay; for IC50: MDA-MB-231, wound-healing assay, dose response, read-out: IC50 antimigratory activity
# Method: The highly metastatic human breast cancer MDA-MB-231 cells were cultured in RPMI 1640 medium containing 10 mM HEPES, 4 mM L-glutamine, 10% fetal bovine serum, penicillin (100 IU/mL), and streptomycin (50 μg/mL), and grown in a 5% CO2 atmosphere at 37° C. Cells were plated onto sterile 24-well and allowed to recover for a confluent cell monolayer formed in each well (>95% confluence). Wounds were then inflicted to each cell monolayer using a sterile 200 μL pipette tip. Media were removed, cells monolayers were washed twice with PBS, and then fresh media containing test compounds were added to each well. Test compounds were prepared in DMSO at 5 μM concentration and added to the plates, each in triplicate using DMSO as negative control. The incubation was carried out for 24 h under serum-starved conditions, after which media was removed and cells were fixed and stained using a staining composition sold under the trade name Diff Quick (Dade Behring Diagnostics, Aguada, Puerto Rico). The stain comprised a fixative reagent containing 1.8 mg/L triarylmethane dye in methyl alcohol; a first solution of 1 g/L xanthene dye, buffer, and sodium azide (0.01%) as preservative; and a second solution of 1.25 g/L Thiazine dye mixture (0.625 g/L azure A and 0.625 g/L methylene blue) and buffer. The number of cells migrated on the scratched wound were counted under the microscope in three or more randomly selected fields (magnification: 400×). Final results are expressed as mean±SEM per 400× field. The wound-healing assay is a simple method for the study of directional cell migration in vitro.
# Compounds were tested for their ability to inhibit the migration of the highly metastatic MDA-MB-231 human breast cancer cells in the wound-healing assay using the procedure described above. Compounds 6, 10, 12, 13, 24, 26, 27, and 29 inhibited the migration of more than 50% of the human breast cancer cells MDA-MB-231 in the wound healing assay at 5 μM dose. […] The antimigratory activity of tocotrienols may be enhanced by a terminal aromatic functionality. The presence of electron withdrawing group, such as nitro in Compound 29, may eliminate the antiproliferative activity yet retain the antimigratory activity of the compound. While the electron donating groups, such as OH and OMe found in Compounds 23 and 26, respectively, retained both antiproliferative and antimigratory activities.
# Utilizing similar procedures follow-up testing was conducted on a variety of compounds using a range of compound concentrations. The results of follow-up antimigratory testing are shown in FIG. 35B and Table III below with IC50 values calculated using statistical software.
# [5] = system: 60 human tumor cell lines; assay: NCI in vitro screening against 60 human cell lines, single concentration; type: cell-based; conditions: 10 μM dose; negative values indicate cytotoxicity
# Method: Compounds selected from Compounds 3-44 were provided to the National Cancer Institute for in vitro screening against 60-human cell lines for their ability to inhibit the growth of tumor cells in a full panel representing nine different organs (blood, lung, colon, CNS, skin, ovary, kidney, prostate, and breast). The compounds were tested at a single concentration of 10 μM, and the percentages of growth inhibitions over the sixty tested cell lines were determined. Compounds showing the highest activity were chosen for secondary assays using five different compound concentrations.
# The human tumor cell lines of the cancer screening panel were grown in RPMI 1640 medium containing 5% fetal bovine serum and 2 mM L-glutamine. For a typical screening experiment, cells are inoculated into 96 well microtiter plates in 100 μL at plating densities ranging from 5000 to 40,000 cells/well depending on the doubling time of individual cell lines. After cell inoculation, the microtiter plates are incubated at 37° C., 5% CO2, 95% air and 100% relative humidity for 24 hours prior to addition of experimental drugs. After 24 hours, two plates of each cell line are fixed in situ with Trichloroacetic acid (“TCA”), to represent a measurement of the cell population for each cell line at the time of drug addition. Experimental drugs are solubilized in dimethyl sulfoxide at 400-fold the desired final maximum test concentration and stored frozen prior to use. At the time of drug addition, an aliquot of frozen concentrate is thawed and diluted to twice the desired final maximum test concentration with complete medium containing 50 ng/mL gentamicin. An aliquot of 100 μL of this drug dilution is added to the appropriate microtiter wells already containing 100 μL of medium, resulting in the required final drug concentrations. Following drug addition, the plates are incubated for an additional 48 h at 37° C., 5% CO2, 95% air, and 100% relative humidity. For adherent cells, the assay is terminated by the addition of cold TCA. Cells are fixed in situ by the gentle addition of 50 μL of cold 50% (w/v) TCA (final concentration, 10% TCA) and incubated for 60 min at 4° C. The supernatant is discarded, and the plates are washed five times with tap water and air dried. Sulforhodamine B (SRB) solution (100 μL) at 0.4% (w/v) in 1% acetic acid is added to each well, and plates are incubated for 10 min at room temperature. After staining, unbound dye is removed by washing five times with 1% acetic acid and the plates are air dried. Bound stain is subsequently solubilized with 10 mM trizma base, and the absorbance is read on an automated plate reader at a wavelength of 515 nm. For suspension cells, the methodology is the same except that the assay is terminated by fixing settled cells at the bottom of the wells by gently adding 50 μL of 80% TCA (final concentration, 16% TCA). FIGS. 37-74 indicate the growth inhibition effects of selected Compounds against a variety of cell lines based on the above described testing configuration. FIGS. 37-74 present the Growth percent for a given compound against the cell lines and both values and a bar chart of the difference between the mean growth percent and the growth percent which is an indication of the selectivity of the compound for that particular cell line.
# [6] = system: +SA mammary epithelial cells; assay: MTT assay of +SA cells (antiproliferative activity); type: cell-based, mouse; conditions: for IC50: Mus musculus, +SA cell, 24 hours treatment, read-out: IC50 antiproliferative activity against +SA mammary epithelial cells; for antiproliferative activity against +SA mammary tumor cells (in words): described from FIG. 32 / text
# Method: The antiproliferative activities of Compounds 3-44 against the highly metastatic malignant +SA mammary epithelial cells were evaluated by MTT assay. Materials for the assay were purchased from Sigma Chemical Company (St. Louis, Mo.) unless otherwise stated. The highly malignant +SA mouse mammary epithelial cell line was serially passaged at subconfluent cell density. The +SA mammary tumor cell line was derived from an adenocarcinoma that developed spontaneously in a BALB/c female mouse. +SA cells were maintained in serum-free defined medium consisting of Dulbecco's modified Eagle's medium (DMEM)/F12 containing 5 mg/mL bovine serum albumin (BSA), 10 […], 100 U/mL soybean trypsin inhibitor, 100 U/mL penicillin G, 0.1 mg/mL streptomycin, […], and 10 ng/mL epidermal growth factor. For subculturing, cells were rinsed twice with sterile Ca2+ and Mg2+-free phosphate buffered saline (PBS) and incubated in 0.05% trypsin containing 0.025% EDTA in PBS for 5 min at 37° C. The released cells were centrifuged, resuspended in fresh media and counted using hemocytometer. A stock solution of the compounds was prepared in DMSO. Once dissolved, this solution was added to a small volume of sterile 10% BSA in water and incubated overnight at 37° C. This solution conjugated to BSA was used to prepare various concentrations (0-40 μM) of tocotrienol analogs. DMSO was added to all treatment media such that the final DMSO concentration was the same in all treatment groups within a given experiment and was always less than 0.1%. For cytotoxic studies, cells were seeded at a density of 5×10^4 cells/well (+SA cells) or 1×10^5 cells/well (CL-S1 cells) (6 wells/group) in 24-well culture plates and allowed to grow in their respective control media. After 3 days incubation period (approximately 70% confluency), cells were divided equally into various treatment groups and exposed to their respective treatments for a 24 hours incubation period. Following the 24 hours treatment period, cell viability was measured using the MTT assay.
# +SA Mammary epithelial cell viable number was determined by a 3-(4,5-dimethylthiazol-2yl)-2,5-diphenyl tetrazolium bromide (MTT) colorimetric assay. On the assay day, treatment medium was replaced with fresh control medium containing 0.42 mg/mL MTT, and the cells in 24-well plates were incubated at 37° C. for 4 hours. Afterward, the medium was removed, and the MTT crystals were dissolved in isopropyl alcohol (1 mL/well). The optical density of each sample was read at 570 nm on a microplate reader (SpectraCount, Packard BioScience Company), against a blank prepared from cell-free cultures. The number of cells/well was calculated against a standard curve prepared by plating various concentrations of cells, as determined by hemocytometer, at the start of each experiment.
# Differences among the various treatment groups in +SA cell cytotoxic studies were determined by analysis of variance (ANOVA) followed by Dunnett's t-test. The difference of P<0.05 was considered to be statistically significant as compared with vehicle-treated controls unless separately described. Linear regression analysis of treatment effects on viable cell number in growth and cytotoxicity studies was used to determine the 50% growth inhibition concentration (IC50) for individual treatments.
# [7] = MCF-10A, MCF10A cells, Table II, non-linear regression, read-out: MCF10A (IC50)
# [8] = MCF 10A non-tumorigenic cells, Table I, read-out: IC50 MCF 10A
SMILES,"IC50 [1, 7]","IC50 [1, 8]",Selectivity index [1],IC50 [2],IC50 [3],inhibition at 5 µM [4],IC50 [4],mean percent growth across all 60 cell lines (mean 60) [5],IC50 [6],antiproliferative activity against +SA mammary tumor cells (in words) [6]
"CC(C)=CCC/C(C)=C/CC/C(C)=C/CC[C@]1(C)CCc2c3c(cc(C)c2O1)OCN(CCCO)C3 [Compound 13, 3-((R)-6,8-dimethyl-8-((3E,7E)-4,8,12-trimethyltrideca-3,7,11-trienyl)-9,10-dihydrochromeno[5,6-e][1,3]oxazin-2(1H,3H,8H)-yl)propan-1-ol]",6.5 µM,6.5 µM,3.61,> 10 µM,> 20 µM,> 50%,6 µM,negative,–,–
"CC(C)=CCC/C(C)=C/CC/C(C)=C/CC[C@]1(C)CCc2c3c(c(C)c(C)c2O1)OCN(Cc1ccccc1)C3 [Compound 6, (R)-2-benzyl-5,6,8-trimethyl-8-((3E,7E)-4,8,12-trimethyltrideca-3,7,11-trienyl)-1,2,3,8,9,10-hexahydrochromeno[5,6-e][1,3]oxazine]",–,–,–,27.3 µM,> 20 µM,> 50%,–,–,1.2 to 2.2 µM,inactive
"CC(C)=CCC/C(C)=C/CC/C(C)=C/CC[C@]1(C)CCc2c(CNCCc3ccc(O)cc3)c(O)c(C)c(C)c2O1 [Compound 31, (R)-5-((4-hydroxyphenethylamino)methyl)-2,7,8-trimethyl-2-((3E,7E)-4,8,12-trimethyltrideca-3,7,11-trienyl)chroman-6-ol]",–,–,–,–,–,–,–,comparable to the activity of Compound 1,0.47 µM,–
"CC(C)=CCC/C(C)=C/CC/C(C)=C/CC[C@]1(C)CCc2c3c(c(C)c(C)c2O1)OCN(CCc1ccc(O)cc1)C3 [Compound 26, 4-(2-((R)-5,6,8-trimethyl-8-((3E,7E)-4,8,12-trimethyltrideca-3,7,11-trienyl)-9,10-dihydrochromeno[5,6-e][1,3]oxazin-2(1H,3H,8H)-yl)ethyl)phenol]",8.5 µM,8.5 µM,5.67,> 5 µM,10.6 µM,> 50%,4.5 µM,–,–,very high activities
"CC(C)=CCC/C(C)=C/CC/C(C)=C/CC[C@]1(C)CCc2c3c(cc(C)c2O1)OCN(CCCCO)C3 [Compound 36, 4-((R)-6,8-dimethyl-8-((3E,7E)-4,8,12-trimethyltrideca-3,7,11-trienyl)-9,10-dihydrochromeno[5,6-e][1,3]oxazin-2(1H,3H,8H)-yl)butan-1-ol]",4.2 µM,4.2 µM,2.34,> 5 µM,16.3 µM,–,2.2 µM,negative,–,–

# Source: US9115145B2, “Tocotrienol derivatives and associated methods” (FIRST TECH INTERNATIONAL LIMITED, priority 2011, dated 2015)
